Test results from patent US5675007A (priority 1994, dated 1997).

Columns and labels:
[1] = target: muscarinic receptors ([^3 H]-OXO-M binding); assay: Inhibition of [^3 H]-oxotremorine-M ([^3 H]-OXO-M) binding, rat cerebral cortex; design: species or system rat (male Hooded Lister); settings: [^3 H]-OXO-M 1.88 nM, 37° C., geometric mean, n = 2
[2] = Functional studies in vivo: body tremor; design: species or system mouse (male CD1); settings: mouse, read-out: Tremor ED50 (dose inducing 50% of the maximum score)
Description: (§1) Male mice (CD1, Charles River UK, 25-35 g) were used in the in vivo experiments. Animals were housed in groups of 10 and allowed food and water ad libitum. Two hours prior to the experiment the animals were rehoused in groups of 5 and allowed to acclimatize to their new environment. Each group was assigned one dose of test compound.
(§2) Test compounds or vehicle were administered by either the subcutaneous (sc) or oral (po) routes. Animals were subjectively assessed for signs of salivation and body tremor 15, 30, 45, 60, 90, 120, 150, 180, 240 and 300 minutes post dose, using a scoring system: 0=absent; 1=mild; 2=moderate; 3=severe. Changes in core body temperature, a measure of central activity, were recorded at the same timepoints using a rectal probe (Comark Electronic Thermometer Type 9001 )

[3] = Functional studies in vivo: salivation; design: species or system mouse (male CD1); settings: mouse, read-out: Salivation ED50 (dose inducing 50% of the maximum score)
Description: as §1, §2

[4] = Functional studies in vivo: hypothermia (core body temperature); design: species or system mouse (male CD1); settings: mouse, 95% CL on next line
Description: as §1, §2

[5] = target: muscarinic receptors ([^3 H]-QNB binding); design: species or system rat (male Hooded Lister); settings: rat cerebral cortex; [^3 H]-QNB 0.27 nM; geometric mean; n = 2

In the case of `CO/N=C(\C#N)[C@H]1C[N+]2([O-])CCC1CC2` [Compound X, [R-(Z)]-α-(methoxyimino)-α-(1-azabicyclo[2.2.2]oct-3-yl)acetonitrile-1-oxide], the IC50 [1] is reported as 2.86 µM, the ED50 ([2]; oral) is reported as over 30 mg/kg and the ED50 ([2]; sc, subcutaneous) is reported as over 30 mg/kg. The ED50 ([3]; oral) was under 0.3 mg/kg, the ED50 ([3]; sc, subcutaneous, 95% CL on next line) was 2.38 mg/kg and the “Hypothermia ED3° (dose inducing 3° fall in core body temperature)” value ([4]; oral) was 5.8 mg/kg. The “Hypothermia ED3° (dose inducing 3° fall in core body temperature)” value ([4]; subcutaneous) was 21.3 mg/kg and the IC50 [5] was 68.7 µM.
